The term AUC(0-inf) denotes total exposure, with the tail of the curve extrapolated. Usually Tmax stands for the time from dosing to the highest level. Usually Cmax stands for the peak of the concentration-time curve.

The values that follow come from publication PMC7044166 (Scientific Reports, 2020).

Molecules are shown by their SMILES. Where “and” joins values, the source holds several entries; their conditions need not be identical. Equal values may be shown once. Read-outs that look alike come from different tables or passages of the source.

A short description of data set [1]: Pharmacokinetic interaction study of DSV and TAM/TOH after oral single or co-administration to Wistar rats (UPLC-MS/MS of plasma, NCA). The format is in vivo. The conditions noted are these: for change in PK parameters following co-administration compared with single administration: Group III (DSV 50 mg/kg + TAM 10 mg/kg, oral) vs Group I (DSV) and Group II (TAM), only exception tmax of TOH; for AUC(0-inf) / Tmax / half-life / Cmax: male, Wistar, rat, plasma, po, mean ± SD, n = 5; for half-life: read-out: t½ (converted); for Cmax: rat plasma; for M.R.(%) metabolite ratio: ratio of AUC0-∞ of TOH to that of TAM, rats.
Protocol: The rats were acclimatized for seven days before starting the experiment. All rats were kept in a well-ventilated room and under standard laboratory conditions; 12 h day/night cycle, average temperature of 25 ± 2 °C, and average relative humidity of 50 ± 2%.
Three group of randomly distributed rats (n = 5) were used to conduct the study. […] Following drug administration, orbital blood samples (0.3 mL) were collected into a series of 1.5 mL polythene heparinized tubes prior to dosing (0 time) and at different time intervals following the drug administration; 0.25, 0.5, 1, 2, 4, 5, 12, 24, and 48 h. Immediate centrifugation (4,500 rpm) of collected blood samples was performed at 4 °C for 30 min. The resulting plasma samples were then stored at −20 °C until the day of analysis. Plasma samples (50 µL) were separately mixed with 50 µL OND, IS, (50 ng/mL), 150 µL of 2% formic acid, and finally completed to 1-mL volume with acetonitrile. Sample preparation was then carried out exactly as mentioned under the experimental section. […] These concentrations were then plotted versus the corresponding withdrawal time.
Plasma concentration-time data were treated by the non-compartmental analysis (NCA) method using PKSolver Add-In Excel 2010. Different PK parameters were calculated. They included maximum drug plasma concentration (Cmax) and the time required to reach the maximum plasma concentration (tmax). Both Cmax and tmax were derived from plasma concentration-time curve simply by visual inspection of the data. Using the PKSover, the elimination rate constant (Kel), the half-life (t1/2), the area under the plasma concentration-time curve from 0 time to the last sampling time t (AUC0-t), the area under the plasma concentration-time curve from 0 time to ∞ (AUC0-∞), and the apparent oral clearance (CL/F) were calculated. Kel was calculated from the slope of the plasma concentration-time curve during the elimination phase and from which t1/2 was derived, t1/2 = 0.693/Kel. The linear trapezoidal rule was used to calculate AUC0-t. The summation of AUC0-t and the extrapolated area from time t to ∞, calculated from the last measured concentration (Clast), result in total AUC from 0 time to ∞, AUC0-∞, AUC0-∞ = AUC0-t + (Clast/Kel). CL/F was calculated by dividing the dose by AUC0-∞. The relative bioavailability (R.B.) was obtained from the ratio of AUC0-∞ of the treated group to AUC0-∞ of the control group.

Data set [2] can be described thus: Stability of DSV, TAM and TOH in rat plasma under storage and treatment conditions. Format: in vitro ADME. The conditions noted are these: six determinations; for recovery at 56 h / recovery at 6 h / recovery / recovery at 30 days: Wistar, rat, rat plasma; for recovery at 56 h: rat plasma (prepared QC samples in the auto-injector), 10 °C, read-out: Auto-sampler stability, mean recovery (%) ± RSD; for recovery at 6 h / recovery / recovery at 30 days: rat plasma (spiked QC samples); for recovery at 6 h: 25 °C, read-out: Short-term stability, mean recovery (%) ± RSD; for recovery / recovery at 30 days: −30 °C; for recovery: 3 cycles, read-out: Freeze-thaw stability, mean recovery (%) ± RSD; for recovery at 30 days: read-out: Long-term stability, mean recovery (%) ± RSD; for recovery at 3 months: analyte solutions, 4 °C, read-out: Refrigerator stability, mean recovery (%) ± RSD. As to the method:
This ensures that no detectable degradation was noticed and that all analytes were stable under the studied conditions. The analytes’ solutions were also stable when kept refrigerated at 4 °C for 3 months or at room temperature for up to 6 h.
Samples were subjected to different storage conditions. Auto-sampler stability was assessed by leaving prepared samples in the auto-injector (10 °C, 56 h) before the injection. Short-term (bench top) stability was evaluated by analyzing samples after being stored at room temperature (25 °C, 6 h). On the other hand, long-term stability was assessed by analyzing samples which had been frozen before analysis (−30 °C, 30 days). Stability of samples was also assessed following three freeze–thaw cycles (frozen at −30 °C, thawed at 25 °C).

Details of data set [3]: method as in earlier work. The conditions noted are these: cited from earlier work.
The test system of data set [4] is estrogen-dependent cell proliferation. The conditions noted are these: relative to TAM, cited from earlier work.
[5] abbreviates: oral co-administration of DSV 50 mg/kg and TAM 10 mg/kg (TOH as metabolite of TAM).
The mark [6] stands for this setting: single oral administration, DSV 50 mg/kg or TAM 10 mg/kg (TOH as metabolite of TAM).
Setting [7] is: high concentration level (800, 400, 400 ng/mL for DSV, TAM, TOH).

In the case of `COc1c(-c2ccc3cc(NS(C)(=O)=O)ccc3c2)cc(-n2ccc(=O)[nH]c2=O)cc1C(C)(C)C` [DSV, Dasabuvir], the “change in PK parameters following co-administration compared with single administration” value in data set [1] is recorded as “no significant changes”. Besides, in data set [1] (setting [5]), the total exposure AUC(0-inf) is 4660 ± 687 ng·h/mL, the Tmax was determined as 4.98 ± 0.61 h, the half-life is 1180 ± 325 min and the Cmax amounted to 159 ± 49 ng/mL. Besides, in data set [1] (setting [6]), the total exposure AUC(0-inf) is 4270 ± 754 ng·h/mL, the Tmax is 4.95 ± 1.07 h, the half-life was 1080 ± 356 min and the Cmax is 144 ± 26.5 ng/mL. Moreover, in data set [2] (setting [7]), the recovery at 56 h was found to be 98.5%, the recovery at 6 h stood at 95%, the recovery at 30 days stood at 98.8% and the recovery at 3 months is 97.6%. Besides, in data set [2] (low concentration level), the recovery at 56 h is 95.5%, the recovery at 6 h came out at 96.3%, the recovery was found to be 98.5% and the recovery at 30 days came to 96.8%. Besides, the recovery at 3 months in data set [2] (low concentration level) amounted to 96.2%. Also, in data set [3], the “pKa (pK1)” value was 8.2 and the “pKa (pK2)” value was 9.2.

For the compound `CC/C(=C(\c1ccccc1)c1ccc(OCCN(C)C)cc1)c1ccccc1` [TAM, Tamoxifen], in data set [1] (setting [5]), the AUC(0-inf) was 3510 ± 464 ng·h/mL, the Tmax is 3.03 ± 0.66 h, the half-life was 1060 ± 205 min and the Cmax came to 288 ± 81 ng/mL. Moreover, in data set [1] (setting [6]), the AUC(0-inf) turned out to be 3880 ± 407 ng·h/mL, the Tmax came out at 2.03 ± 0.95 h, the half-life was 945 ± 311 min and the Cmax came out at 307 ± 109 ng/mL. Moreover, in data set [2] (setting [7]), the recovery at 56 h is 93.5%, the recovery at 6 h amounted to 96.8%, the recovery at 30 days stood at 97.3% and the recovery at 3 months came to 96.6%. Further, in data set [2] (low concentration level), the recovery at 56 h stood at 98.2%, the recovery at 6 h was 98.2%, the recovery was 96.1% and the recovery at 30 days came to 99.7%. Besides, the recovery at 3 months in data set [2] (low concentration level) amounted to 98.9%.

As to `CC/C(=C(\c1ccc(O)cc1)c1ccc(OCCN(C)C)cc1)c1ccccc1` [TOH, 4-hydroxy tamoxifen], the “change in PK parameters following co-administration compared with single administration” value in data set [1] is “no significant changes”. Also, in data set [1] (setting [5]), the area under the curve AUC(0-inf) is 4550 ± 913 ng·h/mL, the Tmax turned out to be 5.03 ± 0.66 h, the half-life was 1180 ± 84.6 min and the highest concentration (Cmax) came to 164 ± 54.5 ng/mL. In data set [1] (setting [6]), the total exposure AUC(0-inf) is 4730 ± 774 ng·h/mL, the Tmax stood at 2.03 ± 0.95 h, the half-life was 1730 ± 119 min and the maximum concentration (Cmax) was 172 ± 54 ng/mL. In addition, in data set [1] (oral co-administration of DSV 50 mg/kg and TAM 10 mg/kg), the “M.R.(%) metabolite ratio” value is given as 129.65 ± 10.88%. Moreover, the “M.R.(%) metabolite ratio” value in data set [1] (single oral TAM 10 mg/kg) is listed as 121.86 ± 11%. For the same compound, in data set [2] (setting [7]), the recovery at 56 h was found to be 95.2%, the recovery at 6 h came to 98.9%, the recovery at 30 days was 95.8% and the recovery at 3 months worked out at 97%. Also, in data set [2] (low concentration level), the recovery at 56 h came to 99.7%, the recovery at 6 h was 96.9%, the recovery was found to be 97.5% and the recovery at 30 days was 99%. In addition, the recovery at 3 months in data set [2] (low concentration level) is 98%. Besides, the pka in data set [3] was 8.66 and 9.45. Moreover, the “reported estrogenic properties, times more potent than TAM” value in data set [4] (at least, reported) is recorded as 30–100 times. For the same compound, the “times more potent than TAM in inhibiting estrogen-dependent cell proliferation” value in data set [4] is listed as 30 to 100 times.
